{"source": "patent US12128131B2", "about": "“Treatment of epithelial cysts by intracystic injection of antineoplastic particles” (CRITITECH, INC., priority 2017, dated 2024)", "test": "Solubility in the Receptor Fluid (60/40 methanol/water, pH 4)", "format": "physicochemical", "conditions": "60 vol. %/40 vol % methanol/water at pH 4 with 0.01 wt % NaN3", "experimental": "Receptor Fluid: The receptor fluid consisted of 60 vol. %/40 vol % methanol/water at pH 4 with 0.01 wt % NaN3 (added as a preservative). […] After mixing and degassing the Receptor Fluid it was filtered through a ZapCap CR 0.2 μm membrane under vacuum; the Receptor Fluid, so filtered, was stirred for an additional 20 minutes under vacuum."}
{"compound": "CC(=O)O[C@@]12CO[C@@H]1C[C@H](O)[C@@]1(C)C(=O)[C@H](O)C3=C(C)[C@@H](OC(=O)[C@H](O)[C@@H](NC(=O)OC(C)(C)C)c4ccccc4)C[C@@](O)([C@@H](OC(=O)c4ccccc4)[C@H]21)C3(C)C", "note": "[Docetaxel Raw Material, docetaxel]", "values": [{"measurement": "solubility in the Receptor Fluid", "value": "sufficient to maintain sink conditions"}]}
